Consider 100 compounds from ChEMBL document CHEMBL3507680, “University of Dundee, Gates Library screen for HepG2 cell viability”.

Molecules are shown by their SMILES.

This data set can be described thus: Human HepG2 cell viability assay in 384 well format. In kind it is toxicity, cell-based. More on the design: dose 125 nL, time 70.5 hour; cytotoxicity at 70.5 h: concentration not given beside the values. The following applies: HepG2 cells, read-out: Inhibition.

For `CC(C)n1ccc2cc(C(=O)Nc3nc[nH]n3)ccc21`, the cytotoxicity at 70.5 h was -15.9%.
As for `Cc1nn(C)c(C)c1C1SCC(=O)Nc2c1c(O)nn2C(C)C` (stereo not given), the figure is -28.8%; as for `Cc1nc(C(=O)N2CCN(S(=O)(=O)N(C)C)CC2)c(-c2ccccc2)s1`, 13.5%.
The figure for `COCCn1ccc2c(C(=O)NC(C)C)cccc21` is -12.3%; for `O=C(CCc1nc2cc(Br)cnc2[nH]1)NCCCN1CCOCC1` it is -17.4%; for `CC(C)C1SCC(=O)Nc2c1c(O)nn2C1CCCCC1` (stereo not given) it is -23.1%.
Take `CC(C)C1SCC(=O)Nc2c1cnn2-c1ccc(Cl)cc1F` (stereo not given): the cytotoxicity at 70.5 h was determined as 0.678%.
In the case of `CC(C)(C)c1csc(CCNC(=O)[C@H](c2ccccc2)n2cnnn2)n1`, the cytotoxicity at 70.5 h was -5.57%.
Regarding `Cc1nn(-c2ccc(C(=O)O)cc2)c2c1C(C(F)(F)F)SCC(=O)N2` (stereo not given), the cytotoxicity at 70.5 h is -5.65%.
As for `COc1ccc2c(c1)c(C(=O)Nc1nnn[nH]1)cn2C(C)C`, the cytotoxicity at 70.5 h amounted to 24.1%.
On to `CC(C)n1cc(C(=O)NC2CCS(=O)(=O)C2)c2ccccc2c1=O` (stereo not given), for which the cytotoxicity at 70.5 h is -14.3%.
For `O=C(NC1CCS(=O)(=O)C1)c1cn(C2CC2)c(=O)c2ccccc12` (stereo not given), the cytotoxicity at 70.5 h was -14.3%.
For the compound `CC(C)CNC(=O)c1cn(-c2ccccn2)c(=O)c2ccccc12`, the cytotoxicity at 70.5 h is -7.97%.
Turning to `Cc1nn(-c2ccc(C(=O)O)cc2)c2c1C(CC(C)C)SCC(=O)N2` (stereo not given), the cytotoxicity at 70.5 h amounted to 0.483%.
As for `Cc1nc(C(=O)N2CCN(S(C)(=O)=O)CC2)c(-c2cccc(F)c2)s1`, the figure is 9.8%.
The figure for `Cc1c(C2SCC(=O)Nc3c2c(O)nn3C2CCCC2)cnn1C` (stereo not given) is -22.8%; for `Cc1nnsc1-c1nnc2sc(C3CCC3)nn12` it is -10%; for `O=c1c(CN2CCCCCC2)coc(O)c1CN1CCCCCC1` it is -4.84%.
The figure for `O=C1CCC(c2ccc(Cl)cc2)=NN1CN1CCSCC1` is -15.1%.
Take `O=C1CSC(C(F)(F)F)c2c(O)nn(C3CCCCC3)c2N1` (stereo not given): the cytotoxicity at 70.5 h amounted to 15.2%.
As for `CC(C)CCn1cc(C(=O)NC2CCS(=O)(=O)C2)c2ccccc2c1=O` (stereo not given), the figure is -12.4%.
Turning to `COC(=O)CCNC(=O)c1cc(-c2ccc(OC)cc2)nn1C`, the cytotoxicity at 70.5 h was -3.5%.
As for `O=C(CNC(=O)c1cnccn1)Nc1ncc[nH]1`, the figure is -33.4%; as for `O=C(Cn1ccc2c(Cl)cccc21)Nc1nc[nH]n1`, -11.2%; as for `Cc1cc(C)nc(NCCC(=O)NCCn2ccc3ccccc32)n1`, 5.63%.
`COCCn1ccc2cc(C(=O)N3CCN(S(C)(=O)=O)CC3)ccc21`: the cytotoxicity at 70.5 h was -5.85%.
The figure for `CN(C)S(=O)(=O)N1CCN(C(=O)c2cc(-c3ccc(Br)s3)n[nH]2)CC1` is -10.1%; for `O=C(CCc1nnc2ccccn2c1=O)NCc1ccc2c(c1)OCO2` it is 25.1%; for `Cn1c(CN2CCOCC2)cc(=O)c(O)c1CN1CCCCC1` it is -4.64%.
As for `CC(C)c1sc(Br)nc1C(=O)NCc1cccnc1`, the figure is 23.2%.
Consider `Cc1ccc(C(=O)Nc2nnc(CC(C)C)s2)c(-n2cnnn2)c1C`, for which the cytotoxicity at 70.5 h turned out to be 29.7%.
Turning to `CC(C)CNC(=O)C1CC(=O)N(c2n[nH]c3ccccc23)C1` (stereo not given), the cytotoxicity at 70.5 h is -5.36%.
For the compound `COCCNC(=O)C1CC(=O)N(c2n[nH]c3cccc(F)c23)C1` (stereo not given), the cytotoxicity at 70.5 h is -25%.
For `CC(C)NC(=O)c1cccc(Oc2ccc3nncn3n2)c1`, the cytotoxicity at 70.5 h worked out at 23.3%.
Take `CC(C)n1cc(C(=O)NC2CN3CCC2CC3)c2ccccc21` (stereo not given): the cytotoxicity at 70.5 h is -20.2%.
The figure for `Cn1cccc1-c1cc(C(=O)NCCCc2csc(N)n2)[nH]n1` is 18.4%; for `CN(Cc1ccc2nsnc2c1)C(=O)CCc1cc2n(n1)CCCNC2` it is -8.3%; for `Cc1cnc(C)c(-c2cc(O)c3c(c2)CN(Cc2nccs2)CCO3)n1` it is -4.63%.
As for `CN(C)C(=O)N1CCn2nc(CNC(=O)CCc3ccccn3)cc2C1`, the figure is 13.6%; as for `Cc1ccccc1[C@@H]1CN(Cc2ccc(C(F)(F)F)nc2)C[C@H]1C(=O)O`, -4.46%; as for `COc1ncccc1CN1CCc2[nH]cnc2C1CCSC` (stereo not given), 25.1%.
For the compound `CSc1ncccc1C(=O)N1CCC2(CC1)OCCCC2O` (stereo not given), the cytotoxicity at 70.5 h is -3.78%.
The figure for `CNC(=O)c1nc(Cn2ncc3ccccc3c2=O)no1` is -3.17%; for `CCc1cnc(C)nc1NCc1nc(COC)no1` it is -6.43%.
On to `Cc1cc(C(=O)N[C@H]2CN(CCC(N)=O)C[C@@H]2C2CC2)sc1C`, for which the cytotoxicity at 70.5 h was found to be 9.55%.
On to `CC(=O)Nc1cccc(-c2ccccc2CCN)c1`, for which the cytotoxicity at 70.5 h is -1.04%.
On to `C/C=C(\C)CN(CCN1CCOCC1)Cc1ccco1`, for which the cytotoxicity at 70.5 h is -8.08%.
The figure for `CCn1nc(C)c(CCNC(=O)c2cccc(-n3cccn3)c2)c1C` is -3.23%; for `Nc1nc(CN2CCCCC2Cn2cncn2)nc2ccccc12` (stereo not given) it is 0.228%.
For the compound `CCc1nc(C2CCCN2Cc2cc(C)nc3ccccc23)no1` (stereo not given), the cytotoxicity at 70.5 h turned out to be 2.62%.
As for `CC(C)c1nc(C2CCCN(C(=O)c3ccc(N(C)C)nn3)C2)no1` (stereo not given), the figure is -1.24%; as for `COc1ccc(C(=O)N2CCCC2c2noc(C(C)C)n2)nn1` (stereo not given), -4.87%.
As for `Cc1nccc(C(=O)N2CCCC2c2noc(C(C)C)n2)n1` (stereo not given), the figure is 22.8%; as for `CCOc1ccc(C(=O)N2CCCC(n3nc(C)nc3C)C2)cc1` (stereo not given), 1.39%.
Take `Cc1nc(C)n(C2CCCN(C(=O)c3ccc(F)c(F)c3)C2)n1` (stereo not given): the cytotoxicity at 70.5 h was -2.21%.
The figure for `CCc1cnc(CN(C(C)=O)C2CCN(Cc3nccn3C)C2)o1` (stereo not given) is 1.08%.
With `CC(=O)N(Cc1ncc(C(C)C)o1)C1CCN(CCn2cncn2)C1` (stereo not given), the cytotoxicity at 70.5 h is -3.83%.
On to `CC(=O)N(Cc1ncc(C(C)C)o1)C1CCN(CC2CCC2)C1` (stereo not given), for which the cytotoxicity at 70.5 h was -3.28%.
For the compound `CCc1nc(C2CCCN2Cc2nnc(C3CCC3)o2)no1` (stereo not given), the cytotoxicity at 70.5 h is -2.49%.
The figure for `CC(C)c1ncc2c(n1)CN(Cc1nnc(Cc3ccccc3)o1)CC2` is -5.27%; for `COc1ccc(C(CNC(=O)c2c(C)noc2C)N(C)C)cc1` (stereo not given) it is 21.1%.
For `CS(=O)(=O)N1CCN(C(=O)CCn2cccn2)CC1`, the cytotoxicity at 70.5 h is -6.72%.
Take `O=C(CCn1cccn1)N1CCSCC1`: the cytotoxicity at 70.5 h is -4.39%.
On to `Cc1ccc(-c2nc(C(=O)N3CCN(C(=O)N(C)C)CC3)cs2)c(C)c1`, for which the cytotoxicity at 70.5 h is -9.21%.
Regarding `O=C(NCCc1ccccn1)Nc1cc(C(F)(F)F)c[nH]c1=O`, the cytotoxicity at 70.5 h was -2.62%.
The figure for `O=C(NCCOc1ccccc1)Nc1cc(C(F)(F)F)c[nH]c1=O` is -1.52%; for `CC(=O)N1CCN(C(=O)c2csc(-c3ccc(C)cc3C)n2)CC1` it is 14.1%; for `Cc1nc(-c2ccc(Cl)s2)sc1C(=O)NC(C)(C)C(N)=O` it is -4.82%.
As for `CN1CCCN(C(=O)NCc2cc(Br)cs2)CC1`, the cytotoxicity at 70.5 h was -1.99%.
The figure for `Cc1noc(C)c1C(=O)NCC(c1cccc(F)c1)N(C)C` (stereo not given) is -4.95%; for `Cc1ccc(-c2nc(C(=O)N(C)C3CCN(C)CC3)cs2)c(C)c1` it is -1.64%.
Regarding `CCOC(=O)c1sc2ccsc2c1CNS(C)(=O)=O`, the cytotoxicity at 70.5 h was -3.52%.
As for `CC(C)c1nc(C2CCCN2Cc2nnc(C3CCC3)o2)no1` (stereo not given), the figure is 14.8%; as for `C1CC(c2noc(C3CC3)n2)N(Cc2nnc(C3CC3)o2)C1` (stereo not given), -7.72%.
As for `CCc1nc(CN2CCOC(Cn3cncn3)C2)no1` (stereo not given), the figure is 16.6%; as for `COc1c(CNCCNC(=O)c2cccs2)c(C)nn1C`, -10.5%.
In the case of `CCCc1nc(C(C)(C)NC(=O)C2CC(=O)N(CC(C)C)C2)no1` (stereo not given), the cytotoxicity at 70.5 h is -4.84%.
The figure for `Cc1ncsc1C(=O)NCCNC(=O)Cc1cccc(F)c1` is -6.49%.
The figure for `Cc1ncc(C(=O)NCCNC(=O)Cc2cccc(F)c2)s1` is -6.72%.
As to `CCOc1cc(C)nc(N2CCN(C(=O)Cn3cc(C)cn3)CC2)n1`, the cytotoxicity at 70.5 h is -0.0989%.
As for `CC(NC(=O)NCCN1CCCC1)c1nncn1C` (stereo not given), the figure is -8.29%; as for `CCOc1cc(C)nc(N2CCN(C(=O)c3cnc[nH]3)CC2)n1`, -0.152%; as for `NC(=O)C1CCCN(C(=O)c2ccn(-c3ccc(F)cc3)n2)C1` (stereo not given), -5.61%.
Consider `CCOc1cc(C)nc(N2CCN(C(=O)c3cscn3)CC2)n1`, for which the cytotoxicity at 70.5 h was -4.61%.
Consider `O=C(CCN1CCCC1=O)Nc1cnn(-c2ccccc2Cl)c1`, for which the cytotoxicity at 70.5 h is -8.1%.
For `CC(C)Cc1nc(CN2CCOC(Cn3cncn3)C2)no1` (stereo not given), the cytotoxicity at 70.5 h was -8.48%.
Turning to `Cc1nccc(C(=O)N2CCCC(c3cc(C(F)(F)F)[nH]n3)C2)n1` (stereo not given), the cytotoxicity at 70.5 h is -2.27%.
Regarding `Cc1noc(C)c1C(=O)N1CCCC(c2cc(C(F)(F)F)[nH]n2)C1` (stereo not given), the cytotoxicity at 70.5 h came to 11%.
The figure for `Cc1ccc(C(=O)NS(=O)(=O)c2ccccc2Cl)c(=O)[nH]1` is 9.73%; for `CC(C)c1ccc(CCC(=O)N2CCOCC2c2ncon2)cc1` (stereo not given) it is -5.22%.
The figure for `Cc1nc(CN2CCCC(N(C)CCCc3ccccc3)C2)no1` (stereo not given) is -5.01%.
`Cc1nc(CN2CCCC(N(C)CCOCC(F)(F)F)C2)no1` (stereo not given): the cytotoxicity at 70.5 h was -6.75%.
With `Cc1cc(NC(=O)CN2CCCC2c2c(C)nn(C)c2Cl)on1` (stereo not given), the cytotoxicity at 70.5 h is -0.864%.
As for `N#Cc1ccc(F)c(CN2CCCCC2Cn2cccn2)c1` (stereo not given), the figure is 0.631%; as for `COc1c(C2CCCN2CC(=O)Nc2cc(C)nn2C)c(C)nn1C` (stereo not given), -3.3%; as for `N#Cc1ccc(CN2CCCC2Cn2cccn2)c(F)c1` (stereo not given), 4.66%.
As for `Cc1nc(CN(C)CC(c2cccs2)N2CCOCC2)no1` (stereo not given), the figure is -1.7%; as for `O=C(NC1CC1)N1CCN(c2cnccn2)CC1`, -1.17%.
Consider `Cc1ncc(CN2CCOCC2)c2cc(C(=O)c3ccc(Br)cc3)oc12`, for which the cytotoxicity at 70.5 h was -13.8%.
As for `CC(C)c1nn(C)cc1CNC1CCOc2ccccc21` (stereo not given), the cytotoxicity at 70.5 h is -7.85%.
